Results published in ChEMBL document CHEMBL1201862, “PubChem BioAssay data set” (2004).
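Test compounds were applied to cells in 96-well plates for 48 hours at 5 doses. Here, GI50 denotes the concentration required for 50% inhibition of growth.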 Activity calls are given as the source filed them. Cut-off read from the data, not from the text of the source: active = GI50 up to about 1.1 µM and inactive = higher.

How the values were obtained:
Test in all cases: NCI tumour cell line growth inhibition, 48 h
HCT-15 = tested on: HCT-15
HCC 2998 = tested on: HCC 2998
MOLT-4 = tested on: MOLT-4
COLO 205 = tested on: COLO 205
SF-268 = tested on: SF-268
HOP-92 = tested on: HOP-92
KM-20L2 = tested on: KM-20L2
U-251 = tested on: U-251
OVCAR-3 = tested on: OVCAR-3
HOP-62 = tested on: HOP-62
NCI-H23 = tested on: NCI-H23
SF-295 = tested on: SF-295
HCT-116 = tested on: HCT-116
SK-MEL-5 = tested on: SK-MEL-5
OVCAR-4 = tested on: OVCAR-4
UACC-257 = tested on: UACC-257
SNB-19 = tested on: SNB-19
A498 = tested on: A498
NCI-H522 = tested on: NCI-H522
786-0 = tested on: 786-0
SW-620 = tested on: SW-620
SNB-75 = tested on: SNB-75
DMS-114 = tested on: DMS-114
DLD-1 = tested on: DLD-1
NCI-H460 = tested on: NCI-H460
LXFL 529 = tested on: LXFL 529
UACC-62 = tested on: UACC-62
M19-MEL = tested on: M19-MEL
EKVX = tested on: EKVX
Malme-3M = tested on: Malme-3M
SNB-78 = tested on: SNB-78
NCI-H226 = tested on: NCI-H226
HOP-18 = tested on: HOP-18
OVCAR-5 = tested on: OVCAR-5
A549 = tested on: A549
DMS-273 = tested on: DMS-273
KM12 = tested on: KM12
ACHN = tested on: ACHN
CAKI-1 = tested on: CAKI-1
K562 = tested on: K562
SN12C = tested on: SN12C
UO-31 = tested on: UO-31
SK-OV-3 = tested on: SK-OV-3
M14 = tested on: M14
IGROV-1 = tested on: IGROV-1
TK-10 = tested on: TK-10
HL-60 = tested on: HL-60
HT-29 = tested on: HT-29
RPMI-8226 = tested on: RPMI-8226
SF-539 = tested on: SF-539
OVCAR-8 = tested on: OVCAR-8
CCRF-CEM = tested on: CCRF-CEM
RXF 631 = tested on: RXF 631
SK-MEL-2 = tested on: SK-MEL-2
RXF 393 = tested on: RXF 393
XF498 = tested on: XF498
SK-MEL-28 = tested on: SK-MEL-28
LOX IMVI = tested on: LOX IMVI

O=C(/C=C/c1ccccc1)c1ccc(Cl)cc1Cl
GI50 (HCT-15): 13.1 µM
GI50 (HCC 2998): 23.3 µM (inactive)
GI50 (MOLT-4): 18.1 µM (inactive)
GI50 (COLO 205): 20.5 µM (inactive)
GI50 (SF-268): 28.4 µM (inactive)
GI50 (HOP-92): 35.9 µM (inactive)
GI50 (KM-20L2): 19.5 µM (inactive)
GI50 (U-251): 19.6 µM (inactive)
GI50 (OVCAR-3): 20 µM (inactive)
GI50 (HOP-62): 94.4 µM (inactive)
GI50 (NCI-H23): 27.5 µM (inactive)
GI50 (SF-295): 19.9 µM (inactive)
GI50 (HCT-116): 11.2 µM (inactive)
GI50 (SK-MEL-5): 14.1 µM (inactive)
GI50 (OVCAR-4): 20.7 µM (inactive)
GI50 (UACC-257): 23.8 µM (inactive)
GI50 (SNB-19): 27.5 µM (inactive)
GI50 (A498): 18.3 µM (inactive)
GI50 (NCI-H522): 13.4 µM (inactive)
GI50 (786-0): 17.9 µM (inactive)
GI50 (SW-620): 4.8 µM (inactive)
GI50 (SNB-75): 30.8 µM (inactive)
GI50 (DMS-114): 17.3 µM (inactive)
GI50 (DLD-1): 17.1 µM (inactive)
GI50 (NCI-H460): 17.6 µM (inactive)
GI50 (LXFL 529): 15.1 µM (inactive)
GI50 (UACC-62): 15.9 µM (inactive)
GI50 (M19-MEL): 23.4 µM (inactive)
GI50 (EKVX): 28.4 µM (inactive)
GI50 (Malme-3M): 25.1 µM (inactive)
GI50 (SNB-78): 22.6 µM (inactive)
GI50 (NCI-H226): 29.9 µM (inactive)
GI50 (HOP-18): 22 µM (inactive)
GI50 (OVCAR-5): 20.6 µM (inactive)
GI50 (A549): 25.8 µM (inactive)
GI50 (DMS-273): 15.5 µM (inactive)
GI50 (KM12): 15.9 µM (inactive)
GI50 (ACHN): 18.2 µM (inactive)
GI50 (CAKI-1): 25.9 µM (inactive)
GI50 (K562): 10 µM (inactive)
GI50 (SN12C): 23.1 µM (inactive)
GI50 (UO-31): > 100 µM (inactive)
GI50 (SK-OV-3): 46.9 µM (inactive)
GI50 (M14): 23.2 µM (inactive)
GI50 (IGROV-1): 18.5 µM (inactive)
GI50 (TK-10): 31.8 µM (inactive)
GI50 (HL-60): 14.8 µM (inactive)
GI50 (HT-29): 16.8 µM (inactive)
GI50 (RPMI-8226): 3.76 µM (inactive)
GI50 (SF-539): 20.8 µM (inactive)
GI50 (OVCAR-8): 15.1 µM (inactive)
GI50 (CCRF-CEM): 7.24 µM (inactive)
GI50 (RXF 631): 38 µM (inactive)

CCOC(=O)CC1=N/C(=N/c2cc(Cl)ccc2Cl)SC1
GI50 (HCT-15): 59.4 µM
GI50 (HCC 2998): > 100 µM (inactive)
GI50 (SK-MEL-2): > 100 µM (inactive)
GI50 (COLO 205): > 100 µM (inactive)
GI50 (SF-268): > 100 µM (inactive)
GI50 (HOP-92): > 100 µM (inactive)
GI50 (RXF 393): > 100 µM (inactive)
GI50 (KM-20L2): > 100 µM (inactive)
GI50 (U-251): > 100 µM (inactive)
GI50 (OVCAR-3): 62.4 µM (inactive)
GI50 (HOP-62): > 100 µM (inactive)
GI50 (NCI-H23): > 100 µM (inactive)
GI50 (SF-295): > 100 µM (inactive)
GI50 (HCT-116): 97.9 µM (inactive)
GI50 (SK-MEL-5): > 100 µM (inactive)
GI50 (OVCAR-4): > 100 µM (inactive)
GI50 (UACC-257): > 100 µM (inactive)
GI50 (SNB-19): > 100 µM (inactive)
GI50 (A498): > 100 µM (inactive)
GI50 (NCI-H522): 76.4 µM (inactive)
GI50 (786-0): > 100 µM (inactive)
GI50 (SW-620): > 100 µM (inactive)
GI50 (SNB-75): 78 µM (inactive)
GI50 (DMS-114): 38.5 µM (inactive)
GI50 (DLD-1): 91.8 µM (inactive)
GI50 (NCI-H460): > 100 µM (inactive)
GI50 (LXFL 529): > 100 µM (inactive)
GI50 (UACC-62): > 100 µM (inactive)
GI50 (XF498): > 100 µM (inactive)
GI50 (M19-MEL): > 100 µM (inactive)
GI50 (EKVX): > 100 µM (inactive)
GI50 (Malme-3M): > 100 µM (inactive)
GI50 (SNB-78): > 100 µM (inactive)
GI50 (NCI-H226): > 100 µM (inactive)
GI50 (HOP-18): > 100 µM (inactive)
GI50 (OVCAR-5): > 100 µM (inactive)
GI50 (A549): > 100 µM (inactive)
GI50 (DMS-273): > 100 µM (inactive)
GI50 (KM12): > 100 µM (inactive)
GI50 (ACHN): > 100 µM (inactive)
GI50 (CAKI-1): > 100 µM (inactive)
GI50 (K562): 42.5 µM (inactive)
GI50 (SN12C): > 100 µM (inactive)
GI50 (UO-31): > 100 µM (inactive)
GI50 (SK-OV-3): > 100 µM (inactive)
GI50 (M14): > 100 µM (inactive)
GI50 (IGROV-1): > 100 µM (inactive)
GI50 (TK-10): > 100 µM (inactive)
GI50 (HL-60): > 100 µM (inactive)
GI50 (HT-29): 54.1 µM (inactive)
GI50 (SF-539): > 100 µM (inactive)
GI50 (SK-MEL-28): > 100 µM (inactive)
GI50 (LOX IMVI): 70.5 µM (inactive)
GI50 (OVCAR-8): > 100 µM (inactive)
GI50 (CCRF-CEM): 76.9 µM (inactive)
